Test results from PMC9399411, “Identification of solamargine as a cisplatin sensitizer through phenotypical screening in cisplatin-resistant NSCLC organoids” (Frontiers in Pharmacology, 2022).

Key:
SMO (smoothened) [1] = biological target: T1, SMO (smoothened) (Homo sapiens, UniProt Q99835); assay: BODIPY-cyclopamine competitive displacement on fixed U2OS-Smo cells (fluorescence imaging), […] solamargine; format: cell-based
T1 construct: human Smo protein stably overexpressed in U2OS cells

SMO (smoothened) [2] = biological target: T1, SMO (smoothened); assay: BODIPY-cyclopamine competitive displacement on fixed U2OS-Smo cells (fluorescence imaging), […] vismodegib; format: cell-based

T1 sequence (Q99835 28-787): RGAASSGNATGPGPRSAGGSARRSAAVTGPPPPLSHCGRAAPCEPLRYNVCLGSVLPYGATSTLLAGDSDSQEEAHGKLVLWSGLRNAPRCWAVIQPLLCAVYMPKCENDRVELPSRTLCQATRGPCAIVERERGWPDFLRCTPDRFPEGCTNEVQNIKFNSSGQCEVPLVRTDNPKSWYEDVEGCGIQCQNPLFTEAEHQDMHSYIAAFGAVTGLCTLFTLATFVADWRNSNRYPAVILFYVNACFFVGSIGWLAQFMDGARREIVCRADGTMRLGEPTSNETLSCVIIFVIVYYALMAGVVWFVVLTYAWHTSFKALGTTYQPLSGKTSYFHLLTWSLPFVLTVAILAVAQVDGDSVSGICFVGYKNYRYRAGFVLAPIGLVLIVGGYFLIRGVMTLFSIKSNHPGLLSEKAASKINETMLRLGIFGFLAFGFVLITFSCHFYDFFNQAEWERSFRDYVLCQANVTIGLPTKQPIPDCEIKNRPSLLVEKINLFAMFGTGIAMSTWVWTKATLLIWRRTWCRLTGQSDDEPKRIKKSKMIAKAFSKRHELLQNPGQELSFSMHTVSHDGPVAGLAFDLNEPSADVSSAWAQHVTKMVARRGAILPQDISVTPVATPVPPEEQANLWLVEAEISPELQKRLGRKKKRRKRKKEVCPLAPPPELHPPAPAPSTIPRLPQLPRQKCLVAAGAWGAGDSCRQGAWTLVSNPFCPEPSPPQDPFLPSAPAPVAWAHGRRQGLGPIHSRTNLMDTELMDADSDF

SMILES	BODIPY-cyclopamine competitive displacement on fixed U2OS-Smo cells (fluorescenc) (SMO (smoothened) [1])	BODIPY-cyclopamine competitive displacement on fixed U2OS-Smo cells (fluorescenc) (SMO (smoothened) [2])
C[C@@H]1CC[C@@]2(NC1)O[C@H]1C[C@H]3[C@@H]4CC=C5C[C@@H](O[C@@H]6O[C@H](CO)[C@@H](O[C@@H]7O[C@@H](C)[C@H](O)[C@@H](O)[C@H]7O)[C@H](O)[C@H]6O[C@@H]6O[C@@H](C)[C@H](O)[C@@H](O)[C@H]6O)CC[C@]5(C)[C@H]4CC[C@]3(C)[C@H]1[C@@H]2C [Solamargine]	fluorescent signaling of BODIPY-cyclopamine wasalso suppressed by Solamargine (Figure 4C), suggesting the inhibitory binding of Solamargine to SMO	–
CS(=O)(=O)c1ccc(C(=O)Nc2ccc(Cl)c(-c3ccccn3)c2)c(Cl)c1 [vismodegib]	–	vismodegib can directly bind to SMO and competitively remove BODIPY-cyclopamine from SMO
